Data as given in ChEMBL document CHEMBL1157539, “Thousands of chemical starting points for antimalarial lead identification” (Nature, 2010).

What follows are molecules tested on Plasmodium falciparum (assay: GSK_TCMDC: Inhibition of Plasmodium falciparum 3D7 in whole erythrocytes, using parasite LDH activity as an index of growth.). Conditions: not given.
Format: functional, organism-based

| SMILES | XC50 |
| --- | --- |
| O=C(/C=C/c1ccc(Cl)c(Cl)c1)NCCCCCN1CCC(c2c[nH]c3ccccc23)C(O)C1 (configuration not stated) | 819 nM |
| COc1ccc(-c2ccccc2)cc1NC(=S)NC1CCC(CN2CCC(c3c[nH]c4ccccc34)CC2)CC1 (configuration not stated) | 740 nM |

Same assay, conditions: Plasmodium falciparum, 3D7

| SMILES | XC50 |
| --- | --- |
| COc1ccc2nc(C)cc(Nc3ccc(Oc4ccc(Cl)cc4)c(Cl)c3)c2c1 | 191 nM |
| Nc1cc(-c2ccc3c(N)nccc3c2)ccc1Cl | 1540 nM |
| CC(C)CCNc1nc(NCCCc2ccccc2)c2cc(O)ccc2n1 | 166 nM |
| COc1ccc(NC(=O)Nc2cccc(-c3cccc(-c4nc5cc(F)ccc5[nH]4)c3)c2)cc1 | 171 nM |
| O=C(/C=C/c1ccc(Cl)c(Cl)c1)NCCCCCN1CCC(c2c[nH]c3ccccc23)C(O)C1 (configuration not stated) | 795 nM |
| Nc1nccc2ccc(-c3ccc(OCc4ccccc4)cc3)cc12 | 222 nM |
| Cc1cc2nc(-c3ccc(OCC(=O)NCc4cccc(C(F)(F)F)c4)cc3)[nH]c2cc1C | 988 nM |
| COc1ccc2ncc(F)c(CCN3C[C@H](CNCc4cc(C#N)c5c(c4)OCCO5)[C@H](O)C3)c2n1 | 582 nM |
| O=C(Nc1ccc2c(c1)CCC2)c1ccc(N2CCN(c3ccncc3)CC2)cc1 | 1130 nM |
| O=C(NC1CCC(CN2CCC(c3c[nH]c4ccccc34)CC2)CC1)c1cc(-c2ccccc2)c(C(F)(F)F)s1 (configuration not stated) | 167 nM |
| O=c1cc(NCCCNCc2cc3c(Cl)cc(Cl)cc3[nH]2)[nH]c2ccccc12 | 862 nM |
| O=C(Nc1cccc(CN2CCN(Cc3ccc(O)cc3)CC2)c1)c1ccc(-c2ccccc2)cc1 | 245 nM |
| CCCCN1CCCN(Cc2cccc(NC(=O)c3ccc(-c4ccccc4)cc3)c2)CC1 | 1030 nM |
| Cc1cnc(-c2ccc(NC(=O)c3coc4ccc(N5CC(C)N(C)C(C)C5)cc34)cc2)o1 (configuration not stated) | 645 nM |
| CN1CCCC1CCCOC(=O)c1ccc(N)cc1 (configuration not stated) | 916 nM |
| CC(C)(CN)c1nc(-c2ccc(Cl)c(O)c2)c(-c2ccncc2)[nH]1 | 756 nM |
| COc1ccc(CNC(=O)c2cnc3c(O)cccc3c2Nc2cccc(NC(=O)c3ccc(Cl)c([N+](=O)[O-])c3)c2)cc1 | 945 nM |
| CCNc1cc(C(=O)N[C@@H](Cc2cc(F)cc(F)c2)[C@H](O)CNCc2cccc(C(F)(F)F)c2)cc(N2CCCCS2(=O)=O)c1 | 613 nM |
| CCOc1c(CNCCCNc2cc(O)c3ccccc3n2)cc(Br)cc1OC | 1160 nM |
| COc1cc(OC)c2c(C)cc(NCCCN3CCOCC3)nc2c1 | 1070 nM |
| CC[C@H](C)[C@@H](C(=O)N1CCOCC1)N1CC[C@H](NS(=O)(=O)CC(C)(C)c2ccc(Cl)cc2)C1=O | 550 nM |
| Cc1cc(Br)cnc1CCCCNc1cc(=O)c2ccccc2[nH]1 | 1160 nM |
| Cc1nnsc1C(=O)Nc1cccc(-c2ccc(-c3nc4cc(F)ccc4[nH]3)cc2)c1 | 96.2 nM |
| COC(=O)CCCOc1cc(Cc2cnc(N)nc2N)cc(OC)c1OC | 767 nM |

| SMILES | XC50 |
| --- | --- |
| Nc1nc(N)c2c(Oc3cccc(Cl)c3)cccc2n1 | 471 nM |
| CCOc1c(CNCCCNc2cc(O)c3ccccc3n2)cc(I)cc1OC | 1170 nM |
| CC(=O)Nc1ccc(S(=O)(=O)Nc2ccc(Nc3nc(C)cc(N(C)C)n3)cc2)cc1 | 1160 nM |
| OC(COc1ccccc1-c1nc2ccccc2o1)CN1CCCN(CCc2ccccc2)CC1 (configuration not stated) | 758 nM |
| COc1ccc(-c2ccccc2)cc1NC(=S)NC1CCC(CN2CCC(c3c[nH]c4ccccc34)CC2)CC1 (configuration not stated) | 652 nM |
| NS(=O)(=O)NCCCN1CCN(c2ccccc2)CC1 | 977 nM |
| COc1ccc(CNCc2ccccc2)cc1-c1ccc(S(=O)(=O)NCCN2CCCC2)c(C)c1 | 856 nM |
| CCC1CN2CCc3c([nH]c4ccccc34)[C@@H]2C[C@@H]1CC1NCCc2cc(OC)c(OC)cc21 (some centres not stated) | 865 nM |
| COCCNCc1cccc(-c2ccccc2CN(C(=O)Nc2ccccc2)C2CCN(Cc3ccccc3)CC2)c1 | 914 nM |
| COc1ccc(NS(=O)(=O)c2ccccc2Br)cc1N1CCN(C)CC1 | 967 nM |
| CS(=O)(=O)CCNCc1cccc(-c2cc3c(Nc4ccc5c(cnn5Cc5ccccc5)c4)ncnc3s2)c1 | 553 nM |
| NCc1ccc(CNCc2ccc(-c3ccc(-c4nc5cc(F)ccc5[nH]4)cc3)cc2)cc1 | 402 nM |
| Fc1cc(CN2CCCC2)ccc1OCCCN1CCN(c2cccc(Cl)c2Cl)CC1 | 1040 nM |
| Cc1[nH]cc(Br)c(=O)c1-c1ccc(Oc2ccccc2)cc1 | 678 nM |
| CCOCCCn1c(=N)c(C(=O)NCc2ccc(F)cc2)cc2c(=O)n3cccc(C)c3nc21 | 526 nM |
| CC(C)N1CCC(NCc2ccc(-c3ccc(Cl)cc3)cc2)CC1 | 646 nM |
| CCCCCc1cc(O)c2c3c(c(=O)oc2c1)CN(C)CC3 | 121 nM |
| CCN1CCc2nc3ccccc3c(C(=O)Nc3ccc(C#N)cc3)c2C1 | 780 nM |
| COc1cc(/C=N/Nc2nc(Nc3ccccc3)nc(Nc3ccccc3)n2)ccc1OCc1ccccc1[N+](=O)[O-] | 806 nM |
| c1ccc(-n2ncc(CNCc3ccc(-c4cccc(-c5nc6ccccc6[nH]5)c4)cc3)n2)cc1 | 1230 nM |
| COc1ccc(-c2nc3cc4ccccc4nc3[nH]2)c(OCC(O)CNC(C)C)c1 (configuration not stated) | 694 nM |
| COc1ccc(-n2nc(C)c3c2NC(=O)CC3c2ccccc2OCc2ccc(F)cc2)cc1 (configuration not stated) | 855 nM |
| O=C(Nc1ccc(-c2cncc(NCCCN3CCCC3)c2)cc1)c1ccccc1 | 939 nM |
| O=S(=O)(Nc1cc2c(cc1O)CCN(C1CCC1)CC2)c1ccc(-c2ccc(F)cc2)cc1 | 417 nM |

| SMILES | XC50 |
| --- | --- |
| CCN1CCC(N(Cc2ccc(-c3ccc(C(F)(F)F)s3)cc2)C(=O)Cn2c(CCc3cccc(F)c3F)nc(=O)c3ccccc32)CC1 | 932 nM |
| CCC(C)(C)c1ccc(OCCCC(=O)Nc2ccc(Cl)c([N+](=O)[O-])c2)c(C(C)(C)CC)c1 | 969 nM |
| Fc1ccc2[nH]ccc(=NN=Cc3ccccc3Cl)c2c1 | 922 nM |
| CCOc1cc(C)ccc1C1CCN(CCCCNC(=O)c2ccc(NC(=O)c3cc(Cl)cc(Cl)c3)cc2)CC1 | 355 nM |
| COc1ccc2nccc(N3CCC(SCCNCc4cc5c(cn4)OCCO5)C3)c2n1 (configuration not stated) | 768 nM |
| COc1ccc2c(OC)ccc(CNCCCCCCNCc3ccc(OC)c4ccc(OC)cc34)c2c1 | 399 nM |
| Cc1nnc(-c2ccc3ccccc3c2)c2cn(-c3cccc([N+](=O)[O-])c3)nc12 | 988 nM |
| CCOC(=O)c1ccc(NCc2ccccn2)cc1 | 626 nM |
| COc1cc2cc(-c3nc4ccccc4[nH]3)c(N)nc2cc1OC | 168 nM |
| CC(C)=CC1C(C(=O)n2c(=N)[nH]c3ccccc32)C1(C)C (configuration not stated) | 193 nM |
| O=C(/C=C/c1ccc(Cl)c(Cl)c1)N1CCC(CN2CCC(c3c[nH]c4cc5c(cc34)OCO5)CC2)CC1 | 680 nM |
| CN(C)CCn1c(=N)n(CC(O)c2ccc(Cl)c(Cl)c2)c2ccccc21 (configuration not stated) | 798 nM |
| CCN(CC)CCN(Cc1ccc(-c2ccc(C(F)(F)F)cc2)cc1)C(=O)Cn1c(CCc2cccc(F)c2F)nc(=O)c2cccnc21 | 728 nM |
| CCN(CC)CCN(CCCc1ccc(-c2ccc(C(F)(F)F)cc2)cc1)C(=O)Cn1c(CCc2cccc(F)c2F)nc(=O)c2c1CCC2 | 828 nM |
| COc1ccc2nccc([C@@H](O)CN3CCC(NCc4cc5oc(=O)n(C)c5cc4F)CC3)c2c1 | 661 nM |
| CC[C@H](C)CNC(=O)c1cccc(-c2cccc(CN3CCC(N4CCCC4)CC3)c2)n1 | 706 nM |
| CN1CCC(C(=O)N(Cc2ccc(-c3ccc(CNCCc4ccccc4)cn3)cc2)Cc2cccc(F)c2)CC1 | 935 nM |
| CCN(CCC1(c2ccc(Cl)c(Cl)c2)CN(C(=O)c2cc(OC)c(OC)c(OC)c2)CCO1)C1CC2c3ccccc3CC21 (configuration not stated) | 426 nM |
| CCCC(C)Nc1nc(C)cc(N[C@@H](CC(C)C)C(=O)NCc2cccc(F)c2)n1 (some centres not stated) | 1000 nM |
| O=C1C(c2ccccc2)=C(Nc2ccc(OC(F)(F)F)cc2)c2ccccc21 | 107 nM |
| COc1ccc(OCC(=O)Nc2cc(-c3nc4ccccc4[nH]3)ccc2Cl)cc1 | 903 nM |
| COc1ccc2ncc(F)c(CCN3CCC4(CC3)COC(c3cc5c(cn3)OCCO5)=N4)c2n1 | 216 nM |
| C[C@H](NC(=O)c1c(OC2CN(C(c3ccccc3)c3ccccc3)C2)c(-c2ccccc2)nc2ccccc12)C1CCCCC1 | 978 nM |
| COc1ccc(S(=O)(=O)NC2CCN(c3ccc(C(F)(F)F)cc3NC(=O)OCC(C)C)CC2)cc1 | 1220 nM |

| SMILES | XC50 |
| --- | --- |
| O=C(N[C@@H](Cc1ccccc1)[C@H](O)CNCCC(F)(F)F)c1cccc(CCC2CC2)c1 | 1020 nM |
| Oc1ccc(Nc2nc(NCc3ccco3)c3ccccc3n2)cc1 | 674 nM |
| CCN(CC)C(=O)C1CCN(C(C(=O)N2CCN(CC(=O)N3CCCC3)CC2)c2cc3ccccc3o2)CC1 (configuration not stated) | 707 nM |
| COc1ccc(CN2C(=S)N(Cc3ccccc3)C(=O)C2CC(=O)Nc2ccccc2)cc1OC (configuration not stated) | 844 nM |
| CC(C)c1ccc(CN2CCC(NC(=O)c3ccc(-c4cccc(Cl)c4)s3)CC2)cc1 | 1430 nM |
| Clc1ccc2c(NN=Cc3ccccc3)ccnc2c1 | 755 nM |
| CCN(CC)CCN(Cc1ccc(-c2ccc(C(F)(F)F)cc2)nc1)C(=O)Cn1cc(Cc2cnn(C)c2)c(=O)n2nc(-c3ccccc3)cc12 | 991 nM |
| CCCCc1ccc(C(=O)Nc2ccc3nc(N4CCN(C)CC4)cc(C)c3c2)cc1 | 1100 nM |
| CN1CCN(c2ccc(Nc3ncc([N+](=O)[O-])c(Nc4ccccc4O)n3)cc2)CC1 | 723 nM |
| COCC(=O)N(Cc1ccccc1-c1ccc(CNCCc2ccccc2)cc1)C1CCN(Cc2ccccc2)CC1 | 895 nM |
| NC1CCCN(Cc2ccc(-c3ccc(-c4nc5cc(F)ccc5[nH]4)s3)cc2)C1 (configuration not stated) | 177 nM |
| Cn1c(Nc2cc(C(C)(C)C)on2)nc2cc(Nc3ccnc(Nc4ccc(CS(C)(=O)=O)cc4)n3)ccc21 | 977 nM |
| CN(C)CCOc1ccc2c(=O)cc(CCc3cccc(F)c3F)n(CC(=O)N(C)Cc3ccc(-c4ccc(C(F)(F)F)cc4)cc3)c2c1 | 1200 nM |
| O=C(NC1CCN(Cc2cccc(C(F)(F)F)c2)CC1)c1ccc(-c2cccc(C(F)(F)F)c2)s1 | 1010 nM |
| COc1ccc2ncc(F)c(CCN3CC[C@H](NC(=O)c4ccc5c(n4)NC(=O)CS5)[C@H](O)C3)c2n1 | 947 nM |
| COc1cccc(NC(=O)[C@H](C)n2c(=O)[nH]c3ccccc3c2=O)c1 | 764 nM |
| CN1CCN(CC(=O)Nc2ccc(-c3cccc(-c4nc5cc(C(F)(F)F)ccc5[nH]4)c3)cc2)CC1 | 399 nM |
| COc1ccc(NCCCNc2ccnc3ccccc23)cc1 | 966 nM |
| COc1cc2ccccc2c(OC)c1CNCCCCCCNCc1c(OC)cc2ccccc2c1OC | 988 nM |
| CCN(CC)CCCN1CCN(C(=O)c2cccc(-c3noc(C(F)(F)F)n3)c2)CC1 | 154 nM |
| CC(C)c1ccc(NC(=O)NCC2CCCN(CCCCCNC(=O)/C=C/c3ccc(Cl)c(Cl)c3)C2)cc1 (configuration not stated) | 806 nM |
| COc1ccc(C(=O)Nc2cc(Cl)c3c(c2)C2CCCN2CC3)cc1C(F)(F)F (configuration not stated) | 753 nM |
| Cc1ccc(F)cc1S(=O)(=O)N1CCCCC(c2ccc(C(F)(F)F)cc2)=N1 | 937 nM |
